# Like-named read-outs stand apart in the source and are kept apart here.
# How the values were obtained:
# Type in all cases: biochemical
# [1] = biological target: T1, Rhodotorula rubra (ATCC No. 889) PAL/TAL enzyme (Rhodotorula mucilaginosa, UniProt P10248); assay: PAL/TAL enzyme kinetics in cell-free extract, R. rubra ATCC 889; details: Vmax/Km for phenylalanine relative to tyrosine
# T1 sequence (P10248 1-713): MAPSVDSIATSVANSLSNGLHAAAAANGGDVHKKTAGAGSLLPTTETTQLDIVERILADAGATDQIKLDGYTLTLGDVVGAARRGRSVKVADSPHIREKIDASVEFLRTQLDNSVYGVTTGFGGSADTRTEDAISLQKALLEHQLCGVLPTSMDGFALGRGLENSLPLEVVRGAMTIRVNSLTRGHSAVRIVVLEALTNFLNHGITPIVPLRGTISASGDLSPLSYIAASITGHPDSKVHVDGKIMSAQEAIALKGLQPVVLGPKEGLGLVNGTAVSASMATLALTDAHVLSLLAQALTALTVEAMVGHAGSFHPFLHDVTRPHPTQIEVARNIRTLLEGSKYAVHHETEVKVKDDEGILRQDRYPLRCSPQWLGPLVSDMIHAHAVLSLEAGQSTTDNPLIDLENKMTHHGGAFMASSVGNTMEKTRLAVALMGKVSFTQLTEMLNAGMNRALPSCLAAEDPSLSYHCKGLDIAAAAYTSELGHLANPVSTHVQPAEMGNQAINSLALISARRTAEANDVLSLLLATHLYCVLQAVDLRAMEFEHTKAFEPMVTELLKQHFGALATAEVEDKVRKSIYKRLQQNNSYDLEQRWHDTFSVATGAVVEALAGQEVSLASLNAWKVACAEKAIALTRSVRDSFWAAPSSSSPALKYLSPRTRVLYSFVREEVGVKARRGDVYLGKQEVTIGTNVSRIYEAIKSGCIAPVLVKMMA
# Excerpt: (§1) The yeast strains: Rhodotorula rubra (ATCC No. 889), Saccharomycopsis fibuligera (ATCC No. 2080), Rhodosporidium toruloides (ATCC No. 10788), Sporidobolus pararoseus (ATCC No. 11386), Sporidiobolus ruinenii (ATCC No. 20489), Rhodotorula graminis (ATCC No. 20804), Rhodotorula minuta (ATCC No. 32769), Trichosporon cutaneum (ATCC No. 46446), and Trichosporon cutaneum (ATCC No. 58094) were obtained from the American Type Culture Collection (ATCC, Manassas, Va.). These yeast strains were streaked out from glycerol stock onto nutrient agar plates and grown at 30° C. Single colonies were then selected and transferred to 50 mL of Dagley's medium (Sparnins, et al, J. Bact. 138:425-430 (1979)) supplemented with 0.1 g/L of tyrosine, phenylalanine or succinate. Alternatively, a minimal media, consisting of 1.61 g/L of K2HPO4, 5.55 g/L of KH2PO4, 0.1 g/L MgSO4, 0.01 g/L of biotin, with a pH of 6.2 and supplemented with 0.5 g/L of tyrosine, was used. […]
# (§2) Protein concentrations were determined using the Bradford method (Anal. Biochem. 72:248-254 (1976)). The Coomassie solution was mixed with varying amounts of the cell free extracts and the OD at 595 nm was measured.
# (§3) For PAL activity, cinnamate formation was monitored at 290 nm using a molar extinction coefficient of 9000 cm-1. […] For TAL activity, PHCA formation was monitored at 315 nm (extinction coefficient of 10,000 cm-1). […]
# [2] = tested on: Saccharomycopsis fibuligera (ATCC No. 2080) PAL/TAL enzyme; assay: PAL/TAL enzyme kinetics in cell-free extract, S. fibuligera ATCC 2080
# Excerpt: (§4) The yeast strains: Rhodotorula rubra (ATCC No. 889), Saccharomycopsis fibuligera (ATCC No. 2080), Rhodosporidium toruloides (ATCC No. 10788), Sporidobolus pararoseus (ATCC No. 11386), Sporidiobolus ruinenii (ATCC No. 20489), Rhodotorula graminis (ATCC No. 20804), Rhodotorula minuta (ATCC No. 32769), Trichosporon cutaneum (ATCC No. 46446), and Trichosporon cutaneum (ATCC No. 58094) were obtained from the American Type Culture Collection (ATCC, Manassas, Va.). These yeast strains were streaked out from glycerol stock onto nutrient agar plates and grown at 30° C. Single colonies were then selected and transferred to 50 mL of Dagley's medium (Sparnins, et al, J. Bact. 138:425-430 (1979)) supplemented with 0.1 g/L of tyrosine, phenylalanine or succinate. Alternatively, a minimal media, consisting of 1.61 g/L of K2HPO4, 5.55 g/L of KH2PO4, 0.1 g/L MgSO4, 0.01 g/L of biotin, with a pH of 6.2 and supplemented with 0.5 g/L of tyrosine, was used. The cells were grown up at 30° C. on a shaker at ˜250 rpm to an OD between 1.0 and 2.0 at 600 nm. The cells were then pelleted by centrifugation and resuspended in 1.0 mL of 50 mM Tris-HCl buffer, pH 8.5.
# (§5) The cells were washed and then resuspended in 50 mM Tris-HCl buffer, pH 8.5, containing 1.0 μg/mL of both leupeptin and pepstatin A, 0.5 mM of PMSF (phenylmethylsulfonyl fluoride) and a small amount of DNase. The cells were then passed twice through a French Pressure Cell at 18,000 psi and the debris was removed by centrifugation at 38,720×g for 20 min at 4° C. The supernatant was then used as the crude cell free extract for enzyme assays.
# as §2
# (§6) For PAL activity, cinnamate formation was monitored at 290 nm using a molar extinction coefficient of 9000 cm-1. One unit of activity deaminates 1.0 μmol of phenylalanine to cinnamate in one min. For TAL activity, PHCA formation was monitored at 315 nm (extinction coefficient of 10,000 cm-1). One unit of activity deaminates 1.0 μmol of tyrosine to PHCA in one min.
# [3] = biological target: T2, R. glutinis (Rhodosporidium toruloides, ATCC No. 10788) PAL/TAL enzyme (Rhodotorula toruloides, UniProt P11544); assay: PAL/TAL enzyme kinetics in cell-free extract, R. glutinis (R. toruloides) ATCC 10788; details: Vmax/Km for phenylalanine relative to tyrosine
# T2 sequence (P11544 1-716): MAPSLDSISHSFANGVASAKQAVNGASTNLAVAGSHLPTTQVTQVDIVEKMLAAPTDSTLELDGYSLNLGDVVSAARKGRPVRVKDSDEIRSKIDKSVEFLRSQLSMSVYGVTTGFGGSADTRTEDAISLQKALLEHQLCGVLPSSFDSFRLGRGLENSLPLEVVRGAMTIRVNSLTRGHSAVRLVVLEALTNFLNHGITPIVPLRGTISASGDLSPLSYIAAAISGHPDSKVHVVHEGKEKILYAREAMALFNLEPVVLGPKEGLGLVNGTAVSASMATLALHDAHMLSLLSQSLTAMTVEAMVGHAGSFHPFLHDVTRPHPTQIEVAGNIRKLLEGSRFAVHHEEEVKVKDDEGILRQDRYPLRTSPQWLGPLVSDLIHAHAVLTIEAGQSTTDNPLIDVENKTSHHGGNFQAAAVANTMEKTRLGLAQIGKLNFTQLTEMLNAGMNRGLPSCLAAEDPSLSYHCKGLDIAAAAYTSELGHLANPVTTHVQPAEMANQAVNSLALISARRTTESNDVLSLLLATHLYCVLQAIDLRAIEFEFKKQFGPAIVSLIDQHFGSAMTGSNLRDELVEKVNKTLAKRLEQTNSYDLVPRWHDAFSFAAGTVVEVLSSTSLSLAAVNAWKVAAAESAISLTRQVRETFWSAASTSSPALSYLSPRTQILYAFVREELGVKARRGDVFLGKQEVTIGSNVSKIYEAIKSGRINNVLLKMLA
# Excerpt: as §1, §2, §3
# [4] = tested on: Sporidobolus pararoseus (ATCC No. 11386) PAL/TAL enzyme; assay: PAL/TAL enzyme kinetics in cell-free extract, S. pararoseus ATCC 11386
# Excerpt: as §4, §5, §2, §6
# [5] = tested on: Sporidiobolus ruinenii (ATCC No. 20489) PAL/TAL enzyme; assay: PAL/TAL enzyme kinetics in cell-free extract, S. ruinenii ATCC 20489
# Excerpt: as §4, §5, §2, §6
# [6] = tested on: Rhodotorula graminis (ATCC No. 20804) PAL/TAL enzyme; assay: PAL/TAL enzyme kinetics in cell-free extract, R. graminis ATCC 20804
# Excerpt: as §4, §5, §2, §6
# [7] = tested on: Rhodotorula minuta (ATCC No. 32769) PAL/TAL enzyme; assay: PAL/TAL enzyme kinetics in cell-free extract, R. minuta ATCC 32769
# Excerpt: as §4, §5, §2, §6
# [8] = tested on: Trichosporon cutaneum (ATCC No. 46446) PAL/TAL enzyme; assay: PAL/TAL enzyme kinetics in cell-free extract, T. cutaneum ATCC 46446
# Excerpt: as §4, §5, §2, §6
# [9] = tested on: Trichosporon cutaneum (ATCC No. 58094) tyrosine ammonia lyase (TAL), wild type, SEQ ID NO:25; assay: PAL/TAL enzyme kinetics in cell-free extract, T. cutaneum ATCC 58094
# Excerpt: as §4, §5, §2, §6
# [10] = Vmax/Km for phenylalanine relative to tyrosine
# [11] = apparent, phenylalanine as substrate, cell-free extract, pH 8.5
# [12] = apparent, phenylalanine as substrate, cell-free extract, pH 8.5, read-out: Km (PAL)
# [13] = apparent, tyrosine as substrate, cell-free extract, pH 8.5
# [14] = apparent, tyrosine as substrate, cell-free extract, pH 8.5, read-out: Km (TAL)
compound,measurement,setting,value
N[C@@H](Cc1ccccc1)C(=O)O [L-phenylalanine],Ratio PAL/TAL,[1],2.52
same,Ratio PAL/TAL,[2]; [10],1.74
same,Vmax (PAL),[2]; [11],0.011 U/mg
same,Km,[2]; [12],467 µM
same,Ratio PAL/TAL,[3],2.20
same,Ratio PAL/TAL,[4]; [10],3.55
same,Vmax (PAL),[4]; [11],0.179 U/mg
same,Km,[4]; [12],507 µM
same,Ratio PAL/TAL,[5]; [10],4.09
same,Vmax (PAL),[5]; [11],0.024 U/mg
same,Km,[5]; [12],389 µM
same,Ratio PAL/TAL,[6]; [10],1.87
same,Vmax (PAL),[6]; [11],0.239 U/mg
same,Km,[6]; [12],448 µM
same,Ratio PAL/TAL,[7]; [10],2.79
same,Vmax (PAL),[7]; [11],0.083 U/mg
same,Km,[7]; [12],584 µM
same,Ratio PAL/TAL,[8]; [10],2.64
same,Vmax (PAL),[8]; [11],0.128 U/mg
same,Km,[8]; [12],49600 µM
same,Ratio PAL/TAL,[9]; [10],0.80
same,Vmax (PAL),[9]; [11],0.777 U/mg
same,Km,[9]; [12],2330 µM
N[C@@H](Cc1ccc(O)cc1)C(=O)O [L-tyrosine],Vmax (TAL),[2]; [13],0.002 U/mg
same,Km,[2]; [14],156 µM
same,Vmax (TAL),[4]; [13],0.033 U/mg
same,Km,[4]; [14],327 µM
same,Vmax (TAL),[5]; [13],0.004 U/mg
same,Km,[5]; [14],264 µM
same,Vmax (TAL),[6]; [13],0.044 U/mg
same,Km,[6]; [14],154 µM
same,Vmax (TAL),[7]; [13],0.011 U/mg
same,Km,[7]; [14],212 µM
same,Vmax (TAL),[8]; [13],0.013 U/mg
same,Km,[8]; [14],13100 µM
same,Km,[9]; [14],431 µM
